Test results published in patent publication US20250108100A1, “C-TERMINAL FRAGMENT OF APOLIPOPROTEIN E AND APPLICATION THEREOF IN INHIBITING y-SECRETASE ACTIVITY” (SYNPHATEC (SHANGHAI) BIOPHARMACEUTICAL TECHNOLOGY CO., LTD., priority 2022, published 2025).
“Also recorded” adds a separate entry of the source.

Tested on: HEK 293T cells expressing APP
Test: APP-expressing HEK 293T cells co-incubated with culture medium containing secreted ApoE2 or ApoE CT: α-CTF
Assay type: cell-based, human
Details: vs GFP control
Method: • a) A plasmid expressing the target protein in mammalian cells was constructed, and the protein expression promoter is CAG. • b) The target protein was expressed in HEK 293T cell line. Cells were subcultured one day before transfection, and transfection was performed when the degree of cell adhesion reached 70%-80%. The transfection reagent was lipofectamine2000 (ThermoFisher). • c) 4-6 hours post transfection, the medium were replaced with fresh cell culture medium. • d) 36-48 hours post transfection, the cells were lysed (10% 1M tris-HCl (pH=6.8), 4% SDS, 20% glycerol, 0.01% bromophenol blue), and the protein samples were collected and used for Western blot or stored in a −80° C. freezer. • e) Polyacrylamide gel electrophoresis. Before protein loading, the protein was boiled at 98° C. for 10 min, and then centrifuged at 12000 rpm for 10 min. Electrophoresis: 80V for the upper stacking gel; 120V for the lower separating gel. • f) Protein transfer. […]

Substance: ApoE2: human apolipoprotein E2, full-length 299 amino acid residues, SEQ ID NO: 12
- α-CTF produced by APP in cells co-incubated with protein in culture medium: does not significantly alter α-CTF levels; also recorded: does not change the α-CTF; also recorded: does not alter the α-CTF
